Laboratory results as given in ChEMBL document CHEMBL5543168, “Discovery of Urea Derivatives of Celastrol as Selective Peroxiredoxin 1 Inhibitors against Colorectal Cancer Cells” (J Med Chem, 2024).

Columns and labels:
[1] = system: HCT-116; test: Inhibition of cell viability in human HCT-116 cells incubated for 72 hrs by Cell Titer Glo assay; format: functional, cell-based; conditions: HCT-116, 72 h
[2] = biological target: T1, Peroxiredoxin-1 (Homo sapiens, UniProt Q06830); test: Inhibition of recombinant PRDX1 (unknown origin) using H2O2 as substrate preincubated for 0.5 hrs followed by substrate addition by TRX-TrxR-NADPH coupling assay
T1 sequence (Q06830 whole entry): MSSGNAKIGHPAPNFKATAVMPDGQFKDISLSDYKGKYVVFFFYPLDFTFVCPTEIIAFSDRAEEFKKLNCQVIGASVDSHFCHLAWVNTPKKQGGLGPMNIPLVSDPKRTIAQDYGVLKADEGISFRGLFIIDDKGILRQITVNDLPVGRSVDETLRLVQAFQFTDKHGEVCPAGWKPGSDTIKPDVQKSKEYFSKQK

[3] = system: SW-620; test: Inhibition of cell viability in human SW620 cells incubated for 72 hrs by Cell Titer Glo assay; format: functional, cell-based; conditions: SW-620, 72 h
[4] = system: SW-620; test: cells; conditions: Homo sapiens, SW-620, 48 h, read-out: Activity
Description: Induction of apoptosis in human SW620 cells assessed as viable cells at 2 uM incubated for 48 hrs by Annexin V-FITC/PI staining based flow cytometry (Rvb = 90.7 %)

[5] = Acute toxicity in C57BL/[…] 6J mouse assessed as pathological change in spleen at 20 mg/kg, ip measured for 2 weeks by H and E staining based analysis; format: organism-based; conditions: in vivo, 336 h
[6] = Acute toxicity in C57BL/[…] 6J mouse assessed as animal death at 20 mg/kg, ip measured for 2 days; format: organism-based; conditions: in vivo, 48 h, time 2 day
[7] = Acute toxicity in C57BL/[…] 6J mouse assessed as pathological change in kidney at 20 mg/kg, ip measured for 2 weeks by H and E staining based analysis; format: organism-based; conditions: in vivo, 336 h
[8] = Toxicity in BALB/c nude mouse xenografted with human SW620 cells assessed as body weight loss at 2 mg/kg, ip qd for 7 days; format: organism-based, SW-620; conditions: in vivo, 168 h, time 7 day
[9] = system: SW-620; test: cells; conditions: Homo sapiens, SW-620, 48 h, read-out: Activity; remark: listed apart in the source
Description: Induction of apoptosis in human SW620 cells assessed as viable cells at 0.5 uM incubated for 48 hrs by Annexin V-FITC/PI staining based flow cytometry (Rvb = 90.7 %)

[10] = Acute toxicity in C57BL/[…] 6J mouse assessed as pathological change in heart at 20 mg/kg, ip measured for 2 weeks by H and E staining based analysis; format: organism-based; conditions: in vivo, 336 h
[11] = Acute toxicity in C57BL/[…] 6J mouse assessed as pathological change in liver at 20 mg/kg, ip measured for 2 weeks by H and E staining based analysis; format: organism-based; conditions: in vivo, 336 h
[12] = system: SW-620; test: cells; conditions: Homo sapiens, SW-620, 48 h, read-out: Activity; remark: listed apart in the source
Description: Induction of apoptosis in human SW620 cells assessed as viable cells at 1 uM incubated for 48 hrs by Annexin V-FITC/PI staining based flow cytometry (Rvb = 90.7 %)

[13] = system: SW-620; test: Antitumor activity against human SW620 cells xenografted in BALB/c nude mouse at 2 mg/kg, ip qd for 16 days relative to control; format: functional; conditions: SW-620, 384 h, time 16 day, read-out: TGI

Row | SMILES | IC50 [1] [µM] | IC50 [2] [µM] | IC50 [3] [µM] | other results
1 | COC(=O)CNC(=O)N[C@]1(C)CC[C@]2(C)CC[C@]3(C)C4=CC=C5C(=CC(=O)C(O)=C5C)[C@]4(C)CC[C@@]3(C)[C@@H]2C1 | 0.83 | 0.64 | 0.49 | 
2 | COC(=O)[C@H](CCSC)NC(=O)N[C@]1(C)CC[C@]2(C)CC[C@]3(C)C4=CC=C5C(=CC(=O)C(O)=C5C)[C@]4(C)CC[C@@]3(C)[C@@H]2C1 | 1.8 | 0.54 | 1.4 | 
3 | COC(=O)[C@H](CO)NC(=O)N[C@]1(C)CC[C@]2(C)CC[C@]3(C)C4=CC=C5C(=CC(=O)C(O)=C5C)[C@]4(C)CC[C@@]3(C)[C@@H]2C1 | 0.74 | 0.47 | 0.64 | 
4 | CC1=C(O)C(=O)C=C2C1=CC=C1[C@@]2(C)CC[C@@]2(C)[C@@H]3C[C@](C)(C(=O)O)CC[C@]3(C)CC[C@]12C [CELASTROL] | 1.4 |  | 0.67 | viability at 2 µM [4]: 27.4%; Activity [5]: Toxic; Activity [6]: Toxic; Activity [7]: Toxic; Activity [8]: Toxic; viability at 0.5 µM [9]: 87.4%; Activity [10]: Toxic; Activity [11]: Toxic; viability at 1 µM [12]: 84.2%; inhibition in vivo at 2 mg/kg [13]: 28%
5 | COC(=O)C1(NC(=O)N[C@]2(C)CC[C@]3(C)CC[C@]4(C)C5=CC=C6C(=CC(=O)C(O)=C6C)[C@]5(C)CC[C@@]4(C)[C@@H]3C2)COC1 | 0.8 | 0.38 | 0.39 | 
6 | CC1=C(O)C(=O)C=C2C1=CC=C1[C@@]2(C)CC[C@@]2(C)[C@@H]3C[C@](C)(NC(=O)N[C@H](C)CO)CC[C@]3(C)CC[C@]12C | 0.84 | 0.53 | 0.6 | 
7 | CC1=C(O)C(=O)C=C2C1=CC=C1[C@@]2(C)CC[C@@]2(C)[C@@H]3C[C@](C)(NC(=O)NCCOCCO)CC[C@]3(C)CC[C@]12C | 1 | 0.41 | 0.79 | 
8 | CC1=C(O)C(=O)C=C2C1=CC=C1[C@@]2(C)CC[C@@]2(C)[C@@H]3C[C@](C)(NC(=O)N[C@H]4C[C@H](CO)[C@H](O)C4)CC[C@]3(C)CC[C@]12C | 3.1 | 0.46 | 2.1 | 
9 | COC(=O)[C@@H](NC(=O)N[C@]1(C)CC[C@]2(C)CC[C@]3(C)C4=CC=C5C(=CC(=O)C(O)=C5C)[C@]4(C)CC[C@@]3(C)[C@@H]2C1)[C@@H](C)O | 0.8 | 0.49 | 0.33 | 
10 | CC1=C(O)C(=O)C=C2C1=CC=C1[C@@]2(C)CC[C@@]2(C)[C@@H]3C[C@](C)(NC(=O)NC(CO)CO)CC[C@]3(C)CC[C@]12C | 2.7 | 0.45 | 1.9 | 
11 | CC1=C(O)C(=O)C=C2C1=CC=C1[C@@]2(C)CC[C@@]2(C)[C@@H]3C[C@](C)(NC(=O)NC4(C(=O)O)COC4)CC[C@]3(C)CC[C@]12C | > 20 | > 20 | > 20 | 
12 | CC1=C(O)C(=O)C=C2C1=CC=C1[C@@]2(C)CC[C@@]2(C)[C@@H]3C[C@](C)(NC(=O)NC(CO)(CO)CO)CC[C@]3(C)CC[C@]12C | 2.5 | 0.5 | 1.1 | 
13 | COC(=O)[C@H](C)NC(=O)N[C@]1(C)CC[C@]2(C)CC[C@]3(C)C4=CC=C5C(=CC(=O)C(O)=C5C)[C@]4(C)CC[C@@]3(C)[C@@H]2C1 | 0.8 | 0.49 | 0.33 | 

Compounds with a lower IC50 [1], results first:

Row | IC50 [1] [µM] | IC50 [2] [µM] | IC50 [3] [µM] | SMILES | other results
14 | 0.65 | 0.36 | 0.35 | CCOC(=O)C1(NC(=O)N[C@]2(C)CC[C@]3(C)CC[C@]4(C)C5=CC=C6C(=CC(=O)C(O)=C6C)[C@]5(C)CC[C@@]4(C)[C@@H]3C2)CC1 | 
15 | 0.44 | 0.36 | 0.26 | COC(=O)[C@@H]1C[C@@H](O)CN1C(=O)N[C@]1(C)CC[C@]2(C)CC[C@]3(C)C4=CC=C5C(=CC(=O)C(O)=C5C)[C@]4(C)CC[C@@]3(C)[C@@H]2C1 | 
16 | 0.68 | 0.33 | 0.48 | CC1=C(O)C(=O)C=C2C1=CC=C1[C@@]2(C)CC[C@@]2(C)[C@@H]3C[C@](C)(NC(=O)N[C@H]4CCOC4=O)CC[C@]3(C)CC[C@]12C | 
17 | 0.23 | 0.47 | 0.28 | COC(=O)[C@@H]1CCCN1C(=O)N[C@]1(C)CC[C@]2(C)CC[C@]3(C)C4=CC=C5C(=CC(=O)C(O)=C5C)[C@]4(C)CC[C@@]3(C)[C@@H]2C1 | 
18 | 0.43 | 0.42 | 0.22 | COC(=O)[C@H](Cc1ccc(O)cc1)NC(=O)N[C@]1(C)CC[C@]2(C)CC[C@]3(C)C4=CC=C5C(=CC(=O)C(O)=C5C)[C@]4(C)CC[C@@]3(C)[C@@H]2C1 | 
19 | 0.34 | 0.46 | 0.19 | COC(=O)[C@@H](NC(=O)N[C@]1(C)CC[C@]2(C)CC[C@]3(C)C4=CC=C5C(=CC(=O)C(O)=C5C)[C@]4(C)CC[C@@]3(C)[C@@H]2C1)C(C)C | 
20 | 0.56 | 0.31 | 0.42 | CC1=C(O)C(=O)C=C2C1=CC=C1[C@@]2(C)CC[C@@]2(C)[C@@H]3C[C@](C)(NC(=O)N[C@@H](C)C(N)=O)CC[C@]3(C)CC[C@]12C | 
21 | 0.41 | 0.4 | 0.33 | COC(=O)[C@H](CCCCNC(=O)OC(C)(C)C)NC(=O)N[C@]1(C)CC[C@]2(C)CC[C@]3(C)C4=CC=C5C(=CC(=O)C(O)=C5C)[C@]4(C)CC[C@@]3(C)[C@@H]2C1 | 
22 | 0.56 | 0.34 | 0.31 | COC(=O)[C@H](Cc1c[nH]c2ccccc12)NC(=O)N[C@]1(C)CC[C@]2(C)CC[C@]3(C)C4=CC=C5C(=CC(=O)C(O)=C5C)[C@]4(C)CC[C@@]3(C)[C@@H]2C1 | 
23 | 0.57 | 0.37 | 0.35 | COC(=O)CC[C@H](NC(=O)N[C@]1(C)CC[C@]2(C)CC[C@]3(C)C4=CC=C5C(=CC(=O)C(O)=C5C)[C@]4(C)CC[C@@]3(C)[C@@H]2C1)C(=O)OC | 
